Test: Test Example 7: influence of the solubilization-effective surfactant concentration on nebulizer sprayability
Format: physicochemical

## Triton X100
  nebulizer sprayability, CA: Infeasible

## Tween-80
  nebulizer sprayability, CA: Infeasible
  nebulizer sprayability, Dexamethasone palmitate: Infeasible
  nebulizer sprayability, Guaiazulene: Infeasible

Source: patent US6544542B1, “Fat emulsions for inhalational administration” (Nippon Shinyaku Co., Ltd., priority 1998, dated 2003)
